# Results reported in publication PMC10796436, “Peptidyl nitroalkene inhibitors of main protease rationalized by computational and crystallographic investigations as antivirals against SARS-CoV-2” (Communications Chemistry, 2024).
# Several values for one entry are separate records, joined by “and”; a condition that tells them apart may be missing. Identical values can stand only once. Like-named read-outs stand apart in the source and are kept apart here.
# How the values were obtained:
# SARS-CoV-2 M^pro [1] = target: T1, SARS-CoV-2 M^pro (Severe acute respiratory syndrome coronavirus 2, UniProt P0DTD1); test: biochemical; details: M^pro from pMal-M^pro vector
# SARS-CoV-2 M^pro [2] = target: T1, SARS-CoV-2 M^pro; test: Mpro FRET inhibition, continuous fluorometric assay (Fluorolog-3), enzyme from pET21-M^pro vector; type: biochemical; details: read-out: Ki (μM)^b
# M^pro [3] = target: T2, M^pro (Severe acute respiratory syndrome coronavirus 2, UniProt P0DTD1); test: biochemical; type: binding; details: for ΔTm at 25 µM: read-out: DTm (°C)
# [4] = calibration compound; cited from earlier work
# M^pro [5] = target: T2, M^pro; type: biochemical; details: for Fluorescence reading (progress curve): triplicate wells
# Protocol: Buffer: 20 mM Tris, 0.1 mM EDTA, 1 mM DTT, 200 mM NaCl pH = 7.5. For the dilution assay Nirmatrelvir[21] was used as a reversible control and LM188[54] as an irreversible control (Fig. 10).
# The incubation was done at RT for 30 min in assay buffer. DMSO was used as a control. After incubation the Enzyme/Inhibitor (or DMSO) mixtures were diluted 100-fold in assay buffer.
# The preincubation was done in assay buffer (20 mM Tris, 0.1 mM EDTA, 1 mM DTT, 200 mM NaCl, pH = 7.5), at RT for 30 min. After incubation the mixtures were diluted […]
# proteolytic activity of the enzyme was measured as described for the enzymatic assays using the […]
# activity was measured over 1 h.
# Inhibition assay58. Trypsin: Enzyme: bovine trypsin purchased from Sigma-Aldrich (St. Louis, […]
# Substrate: Cbz-FR-AMC purchased from Bachem (Bubendorf, Switzerland), [Substrate]: 40 µM […]
# The activity against bovine trypsin was tested at 20 µM inhibitor concentration. […]
# SARS-CoV-2 = test: microbe, parasite or virus in culture; type: cell-based; details: for EC50: Huh-7-ACE2, 24h p.t., MOI=0.1; for virus titer Mean (%): mean of Exp.1-3; for virus titer (pfu/ml) / virus titer (%) of conc 0: single experiments
# [6] = target: human matriptase (MT-SP1) (Homo sapiens, UniProt Q9Y5Y6); test: Matriptase inhibition, fluorometric assay; type: biochemical; details: 20 μM
# Sequence of human matriptase (MT-SP1) (Q9Y5Y6 615-855 limits assumed, other chains not shown): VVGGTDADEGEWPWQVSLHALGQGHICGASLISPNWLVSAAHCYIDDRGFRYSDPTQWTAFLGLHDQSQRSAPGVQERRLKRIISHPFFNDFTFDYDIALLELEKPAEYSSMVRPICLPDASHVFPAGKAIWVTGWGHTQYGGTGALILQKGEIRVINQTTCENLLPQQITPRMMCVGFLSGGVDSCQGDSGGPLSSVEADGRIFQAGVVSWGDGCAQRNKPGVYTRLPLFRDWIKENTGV
# [7] = target: Zika Virus NS2B/NS3 (bZiPro) (Zika virus, UniProt A0A024B7W1); test: Zika virus protease inhibition, fluorometric assay; type: biochemical; details: 20 μM
# Sequence of Zika Virus NS2B/NS3 (bZiPro) (A0A024B7W1 1425-1464): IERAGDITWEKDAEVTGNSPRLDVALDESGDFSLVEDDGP
# Sequence of Zika Virus NS2B/NS3 (bZiPro) (A0A024B7W1 1503-1680): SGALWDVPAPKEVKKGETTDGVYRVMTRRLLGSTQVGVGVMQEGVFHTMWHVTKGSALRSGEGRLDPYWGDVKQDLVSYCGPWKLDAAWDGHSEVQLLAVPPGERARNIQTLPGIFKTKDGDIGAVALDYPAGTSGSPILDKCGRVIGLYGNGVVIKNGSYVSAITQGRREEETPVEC
# rhodesain (RhD) = target: T3, rhodesain (RhD) (Trypanosoma brucei rhodesiense, UniProt Q95PM0); test: Rhodesain inhibition, fluorometric assay; type: biochemical; details: read-out: Ki RhD
# T3 construct: made in house
# T3 sequence (Q95PM0 entry or part of it): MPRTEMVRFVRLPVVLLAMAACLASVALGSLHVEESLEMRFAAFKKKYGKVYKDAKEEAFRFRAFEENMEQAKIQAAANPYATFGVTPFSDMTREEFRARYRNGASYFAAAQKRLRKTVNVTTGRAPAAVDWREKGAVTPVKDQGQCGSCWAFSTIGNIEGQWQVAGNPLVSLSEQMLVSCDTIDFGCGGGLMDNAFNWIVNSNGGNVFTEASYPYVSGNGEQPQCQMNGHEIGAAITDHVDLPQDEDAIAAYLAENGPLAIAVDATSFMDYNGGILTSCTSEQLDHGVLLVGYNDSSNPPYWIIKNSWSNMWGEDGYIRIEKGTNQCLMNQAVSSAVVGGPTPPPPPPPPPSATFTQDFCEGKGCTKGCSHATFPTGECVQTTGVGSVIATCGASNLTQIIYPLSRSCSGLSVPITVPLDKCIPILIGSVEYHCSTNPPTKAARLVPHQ
# cruzain (CRZ) = cruzain (CRZ) (Trypanosoma cruzi, UniProt P25779); test: Cruzain inhibition, fluorometric assay; type: biochemical; details: read-out: Ki CRZ
# Sequence of cruzain (CRZ) (P25779 123-467): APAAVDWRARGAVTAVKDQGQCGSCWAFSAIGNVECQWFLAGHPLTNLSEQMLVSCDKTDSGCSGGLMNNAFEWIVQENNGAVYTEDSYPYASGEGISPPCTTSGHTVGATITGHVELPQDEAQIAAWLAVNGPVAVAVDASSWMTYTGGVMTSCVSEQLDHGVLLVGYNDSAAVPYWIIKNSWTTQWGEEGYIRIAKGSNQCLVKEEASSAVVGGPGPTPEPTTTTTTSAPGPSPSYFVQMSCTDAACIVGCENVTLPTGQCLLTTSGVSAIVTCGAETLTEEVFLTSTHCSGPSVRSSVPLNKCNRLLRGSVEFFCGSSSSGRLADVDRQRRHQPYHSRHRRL
# cathepsin L (CatL) = target: T4, cathepsin L (CatL) (Homo sapiens, UniProt P07711); test: Cathepsin L inhibition, fluorometric assay; type: biochemical; details: read-out: Ki CatL
# T4 construct: purchased Calbiochem (Merck Millipore)
# T4 sequence (P07711 114-288 limits assumed): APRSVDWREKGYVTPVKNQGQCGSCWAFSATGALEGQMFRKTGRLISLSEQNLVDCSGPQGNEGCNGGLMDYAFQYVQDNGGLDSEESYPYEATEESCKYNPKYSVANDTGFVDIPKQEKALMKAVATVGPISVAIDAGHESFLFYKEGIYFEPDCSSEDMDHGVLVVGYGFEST
# T4 sequence (P07711 292-333 limits assumed): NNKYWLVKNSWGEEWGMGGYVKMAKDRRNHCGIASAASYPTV
# cathepsin B (CatB) = target: T5, cathepsin B (CatB) (Homo sapiens, UniProt P07858); test: Cathepsin B inhibition, fluorometric assay; type: biochemical; details: read-out: Ki CatB
# T5 construct: purchased Calbiochem (Merck Millipore)
# M^pro [8] = target: T2, M^pro; test: Binding to M^pro by ultracentrifugation (sedimentation method)
# in vitro = details: human
smiles,measurement,setting,value
CC(C)CC(NC(=O)C=Cc1ccccc1)C(=O)NC(C=C[N+](=O)[O-])CCc1ccccc1 (stereo not drawn) [FGA177],inhibition at 20 µM,SARS-CoV-2 M^pro [1]; 20 μM,25%
same,Ki,SARS-CoV-2 M^pro [2],8.59 ± 1.6 µM
same,ΔTm at 25 µM,M^pro [3]; 25 µM,0.1 °C
same,change of Tm of M^pro,M^pro [3]; range of 25 to 100 μM,0.1 ± 0.2 °C
CCCCC(=O)c1ccccc1 [Valerophenone],Chromatographic Hydrophobicity Index (publication),[4],97.67
"COc1cccc2[nH]c(C(=O)N[C@@H](CC(C)C)C(=O)N[C@H](/C=C/S(=O)(=O)c3ccccc3)C[C@@H]3CCNC3=O)cc12 [LM188, reference compound]",Fluorescence reading (progress curve),M^pro [5]; Time 180.071 s,253 and 247
same,Fluorescence reading (progress curve),M^pro [5]; Time 210.081 s,256 and 250
same,Fluorescence reading (progress curve),M^pro [5]; Time 240.095 s,254 and 247
same,Fluorescence reading (progress curve),M^pro [5]; Time 270.113 s,256 and 248
same,Fluorescence reading (progress curve),M^pro [5]; Time 300.118 s,253 and 248 and 250
same,Fluorescence reading (progress curve),M^pro [5]; Time 330.126 s,256 and 248 and 247
same,Fluorescence reading (progress curve),M^pro [5]; Time 360.134 s,249 and 246 and 248
same,Fluorescence reading (progress curve),M^pro [5]; Time 390.141 s,253 and 250 and 249
same,Fluorescence reading (progress curve),M^pro [5]; Time 420.149 s,251 and 247 and 248
same,Fluorescence reading (progress curve),M^pro [5]; Time 450.157 s,255 and 249 and 250
same,Fluorescence reading (progress curve),M^pro [5]; Time 480.18 s,255 and 244
same,Fluorescence reading (progress curve),M^pro [5]; Time 2881.2 s,249 and 222 and 233
same,Fluorescence reading (progress curve),M^pro [5]; Time 2911.21 s,247 and 222 and 232
same,Fluorescence reading (progress curve),M^pro [5]; Time 2941.22 s,252 and 222 and 230
same,Fluorescence reading (progress curve),M^pro [5]; Time 2971.24 s,250 and 221 and 231
same,Fluorescence reading (progress curve),M^pro [5]; Time 3001.25 s,248 and 221 and 233
same,Fluorescence reading (progress curve),M^pro [5]; Time 3031.26 s,247 and 219 and 231
same,Fluorescence reading (progress curve),M^pro [5]; Time 3061.27 s,249 and 220 and 232
same,Fluorescence reading (progress curve),M^pro [5]; Time 3091.28 s,249 and 219 and 230
same,Fluorescence reading (progress curve),M^pro [5]; Time 3121.29 s,250 and 222 and 232
same,Fluorescence reading (progress curve),M^pro [5]; Time 3151.3 s,246 and 219 and 232
same,Fluorescence reading (progress curve),M^pro [5]; Time 3181.31 s,246 and 220 and 232
same,Fluorescence reading (progress curve),M^pro [5]; Time 3211.32 s,246 and 221 and 231
same,Fluorescence reading (progress curve),M^pro [5]; Time 3241.33 s,243 and 219 and 230
same,Fluorescence reading (progress curve),M^pro [5]; Time 3271.34 s,248 and 221 and 229
same,Fluorescence reading (progress curve),M^pro [5]; Time 3301.35 s,245 and 216 and 230
same,Fluorescence reading (progress curve),M^pro [5]; Time 3331.36 s,246 and 218 and 230
same,Fluorescence reading (progress curve),M^pro [5]; Time 3361.37 s,243 and 219 and 232
same,Fluorescence reading (progress curve),M^pro [5]; Time 3391.39 s,244 and 216 and 230
same,Fluorescence reading (progress curve),M^pro [5]; Time 3421.39 s,241 and 217 and 230
same,Fluorescence reading (progress curve),M^pro [5]; Time 3451.41 s,245 and 215 and 227
same,Fluorescence reading (progress curve),M^pro [5]; Time 3481.42 s,249 and 217 and 230
same,Fluorescence reading (progress curve),M^pro [5]; Time 3511.43 s,242 and 218 and 229
same,Fluorescence reading (progress curve),M^pro [5]; Time 3541.44 s,244 and 216 and 229
same,Fluorescence reading (progress curve),M^pro [5]; Time 3571.45 s,243 and 214 and 228
same,recovery of M^pro activity after 100-fold dilution,M^pro [5]; preincubation 30 min,no visible recovery of activity
CC(=O)c1ccccc1 [Acetophenone],Chromatographic Hydrophobicity Index (publication),[4],64.90
Cn1c(=O)c2[nH]cnc2n(C)c1=O [Theophylline],Chromatographic Hydrophobicity Index (publication),[4],15.76
CC(C)CC(NC(=O)C=Cc1ccccc1)C(=O)NC(C=C[N+](=O)[O-])CC1CCNC1=O (stereo not drawn) [FGA145],Ki,SARS-CoV-2 M^pro [1],3.71 ± 0.38 µM
same,Ki,SARS-CoV-2 M^pro [2],9.82 ± 1.5 µM
same,EC50,SARS-CoV-2,11.7 µM
same,EC50,"SARS-CoV-2; Severe acute respiratory syndrome coronavirus 2, 24 h",11.7 µM
same,virus titer Mean (%),SARS-CoV-2; conc 0.1,99%
same,virus titer (pfu/ml),SARS-CoV-2; conc 0.1,1400000 pfu/ml and 1000000 pfu/ml and 1070000 pfu/ml
same,virus titer Mean (%),SARS-CoV-2; conc 0.5,119%
same,virus titer (%) of conc 0,SARS-CoV-2; conc 0.5,160% and 90% and 107%
same,virus titer (pfu/ml),SARS-CoV-2; conc 0.5,1600000 pfu/ml and 1800000 pfu/ml and 1070000 pfu/ml
same,virus titer Mean (%),SARS-CoV-2; conc 1,120%
same,virus titer (pfu/ml),SARS-CoV-2; conc 1,1400000 pfu/ml and 1500000 pfu/ml
same,virus titer Mean (%),SARS-CoV-2; conc 5,108.333%
same,virus titer (%) of conc 0,SARS-CoV-2; conc 5,120% and 75% and 130%
same,virus titer (pfu/ml),SARS-CoV-2; conc 5,1200000 pfu/ml and 1500000 pfu/ml and 1300000 pfu/ml
same,virus titer Mean (%),SARS-CoV-2; conc 10,25.6667%
same,virus titer (pfu/ml),SARS-CoV-2; conc 10,400000 pfu/ml and 200000 pfu/ml and 270000 pfu/ml
same,virus titer Mean (%),SARS-CoV-2; conc 50,0.07467%
same,virus titer (%) of conc 0,SARS-CoV-2; conc 50,0.2% and 0.01% and 0.014%
same,virus titer Mean (%),SARS-CoV-2; conc 100,0.017%
same,virus titer (%) of conc 0,SARS-CoV-2; conc 100,0.006% and 0.02% and 0.025%
same,MT-SP1,[6],n.i. (no inhibition (<10%) was observed at a concentration of 20 μM)
same,bZiPro,[7],n.i. (no inhibition (<10%) was observed at a concentration of 20 μM)
same,Ki,rhodesain (RhD),0.00163 ± 0.00022 µM
same,Ki,cruzain (CRZ),0.0126 ± 0.0015 µM
same,Ki,cathepsin L (CatL),0.053 ± 0.0041 µM
same,Ki,cathepsin B (CatB),0.206 ± 0.041 µM
same,change of Tm of M^pro,M^pro [3]; 25 µM,−1.1 ± 0.2 °C
same,ΔTm at 25 µM,M^pro [3]; 25 µM,-1.1 °C
same,change of Tm of M^pro,M^pro [3]; 100 μM,−3.7 ± 0.1 °C
same,"Fraction bound, Absorption",M^pro [8]; ligand concentration 0.5,0.01689
same,"Fraction bound, Absorption",M^pro [8]; ligand concentration 1,0.05068
same,"Fraction bound, Absorption",M^pro [8]; ligand concentration 5,0.2419
same,"Fraction bound, Absorption",M^pro [8]; ligand concentration 10,0.373
same,"Fraction bound, Absorption",M^pro [8]; ligand concentration 25,0.7297
same,"Fraction bound, Absorption",M^pro [8]; ligand concentration 50,0.9595
same,"Fraction bound, Absorption",M^pro [8]; ligand concentration 100,1.009
same,Kd,"M^pro [8]; ultracentrifugation, 25 °C",11.8 ± 1.05 µM
same,CC50,in vitro,> 100 µM
